Source: US20080312192A1, “Diaryl Urea Derivatives in the Treatment of Protein Kinase Dependent Diseases” (priority 2003, published 2008)

How the values were obtained:
[1] = target: T1, Flt-3 (Homo sapiens, UniProt P36888); assay: Flt-3 kinase inhibition (GST-Flt-3, 33P incorporation into poly(Glu,Tyr)); type: biochemical
T1 construct: amino acids 563-993 of the cytoplasmic kinase domain of human Flt-3; made in house; host or cells: Sf9 insect cells (baculovirus, vector pFbacG01)
T1 sequence (P36888 563-993): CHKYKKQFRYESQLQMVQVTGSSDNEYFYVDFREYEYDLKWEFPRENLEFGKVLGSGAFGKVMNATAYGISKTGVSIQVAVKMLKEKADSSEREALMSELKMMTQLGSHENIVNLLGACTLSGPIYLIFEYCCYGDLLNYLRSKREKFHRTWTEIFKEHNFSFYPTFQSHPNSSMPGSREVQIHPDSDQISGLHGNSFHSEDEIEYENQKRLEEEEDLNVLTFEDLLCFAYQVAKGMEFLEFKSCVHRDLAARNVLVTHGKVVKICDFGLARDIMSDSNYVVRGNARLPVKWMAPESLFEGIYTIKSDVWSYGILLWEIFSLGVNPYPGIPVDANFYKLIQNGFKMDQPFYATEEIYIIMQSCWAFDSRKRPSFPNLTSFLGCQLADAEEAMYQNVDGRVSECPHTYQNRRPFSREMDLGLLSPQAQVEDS
Experimental: Flt-3 kinase inhibition is determined as follows: The baculovirus donor vector pFbacG01 (GIBCO) is used to generate a recombinant baculovirus expressing the amino acid region amino acids 563-993 of the cytoplasmic kinase domain of human Flt-3. The coding sequence for the cytoplasmic domain of Flt-3 is amplified by PCR from human c-DNA libraries (Clontech). The amplified DNA fragments and the pFbacG01 vector are made compatible for ligation by digestion with BamHI and HindIII. Ligation of these DNA fragments results in the baculovirus donor plasmid pFbacG01-Flt-3. The production of the viruses, the expression of proteins in Sf9 cells and the purification of the GST-fused proteins are performed as follows:
Production of virus: The baculovirus donor plasmid (pFbacG01-Flt-3) containing the Flt-3 kinase domain is transfected into the DH10Bac cell line (GIBCO) and the transfected cells are plated on selective agar plates. Colonies without insertion of the fusion sequence into the viral genome (carried by the bacteria) are blue. Single white colonies are picked and viral DNA (bacmid) is isolated from the bacteria by standard plasmid purification procedures. Sf9 or Sf21 cells (American Type Culture Collection) are then transfected in flasks with the viral DNA using Cellfectin reagent.
Protein expression in Sf9 cells: Virus containing media is collected from the transfected cell culture and used for infection to increase its titre. Virus containing media obtained after two rounds of infection is used for large-scale protein expression. For large-scale protein expression 100 cm^2 round tissue culture plates are seeded with 5×10^7 cells/plate and infected with 1 mL of virus-containing media (approx. 5 MOIs). After 3 days the cells are scraped off the plate and centrifuged at 500 rpm for 5 min. Cell pellets from 10-20, 100 cm^2 plates are resuspended in 50 mL of ice-cold lysis buffer (25 mM Tris-HCl, pH 7.5, 2 mM EDTA-1% NP-40. 1 mM DTT, 1 mM PMSF). The cells are stirred on ice for 15 min and then centrifuged at 5000 rpms for 20 min.
Purification of GST-tagged protein: The centrifuged cell lysate is loaded onto a 2 mL glutathione-sepharose column (Pharmacia) and washed three times with 10 mL of 25 mM Tris-HCl, pH 7.5, 2 mM EDTA, 1 mM DTT, 200 mM NaCl. The GST-tagged protein is then eluted by 10 applications (1 mL each) of 25 mM Tris-HCl, pH 7.5, 10 mM reduced-glutathione, 100 mM NaCl, 1 mM DTT, 10% Glycerol and stored at −70° C.
Measurement of enzyme activity: Tyrosine protein kinase assays with purified GST-Flt-3 protein are carried out in a final volume of 30 μL containing 200-1800 ng of enzyme protein (depending on the specific activity), 20 mM Tris-HCl, pH 7.6, 3 mM MnCl2, 3 mM MgCl2, 1 mM DTT, 10 μM Na3VO4, 3 μg/mL poly(Glu, Tyr) 4:1, 1% DMSO, 8.0 μM ATP and 0.1 μCi [γ^33 P] ATP. The activity is assayed in the presence or absence of inhibitors, by measuring the incorporation of ^33P from [γ^33P] ATP into the poly(Glu,Tyr) substrate. The assay (30 μL) is carried out in 96-well plates at ambient temperature for 20 min and terminated by the addition of 20 μL of 125 mM EDTA. Subsequently, 40 μL of the reaction mixture is transferred onto Immobilon-PVDF membrane (Millipore, Bedford, Mass., USA) previously soaked for 5 min with methanol, rinsed with water, then soaked for 5 min with 0.5% H3PO4 and mounted on vacuum manifold with disconnected vacuum source. After spotting all samples, vacuum is connected and each well rinsed with 200 μL 0.5% H3PO4. Membranes are removed and washed 4× on a shaker with 1.0% H3PO4, once with ethanol. Membranes are counted after drying at ambient temperature, mounting in Packard TopCount 96-well frame, and addition of 10 μL/well of Microscint™ (Packard). IC50 values are calculated by linear regression analysis of the percentage inhibition of each compound in duplicate, at four concentrations (usually 0.01, 0.1, 1 and 10 μM). One unit of protein kinase activity is defined as 1 nmole of ^33P transferred from [γ3P] […]

| SMILES | melting point | IC50 [1] |
| --- | --- | --- |
| CC(C)N1CCN(Cc2cc(NC(=O)Nc3ccc(Oc4cc(Cl)ncn4)cc3)cc(C(F)(F)F)c2)CC1 [Example 5, N-[4-(6-Chloro-pyrimidin-4-yloxy)-phenyl]-N′-[3-(4-isopropylpiperazin-1-ylmethyl)-5-trifluoromethyl-phenyl]-urea] | 101 °C | 540 nM |
| CN1CCN(Cc2cc(NC(=O)Nc3ccc(Oc4cc(Cl)ncn4)cc3)cc(C(F)(F)F)c2)CC1 [Example 9, N-[4-(6-Chloro-Pyrimidin-4-yloxy)-phenyl]-N′-[3-(4-methylpiperazin-1-ylmethyl)-5-trifluoromethyl-phenyl]-urea] | 291 to 292 °C | 320 nM |
| CCN(CC)Cc1cc(NC(=O)Nc2ccc(Oc3cc(NC)ncn3)cc2)cc(C(F)(F)F)c1 [Example 11, N-[4-(6-Methylamino-pyrimidin-4-yloxy)-phenyl]-N′-(3-diethylaminomethyl-5-trifluoromethyl-phenyl)-urea] | 68 to 70 °C | 230 nM |
| CCN(CC)Cc1cc(NC(=O)Nc2ccc(Oc3cc(N)ncn3)cc2)cc(C(F)(F)F)c1 [Example 13, N-[4-(6-Amino-pyrimidin-4-yloxy)-phenyl]-N′-(3-diethylaminomethyl-5-trifluoromethyl-phenyl)-urea] | 63 to 65 °C | 340 nM |
| Cc1ncn(Cc2ccc(NC(=O)Nc3ccc(Oc4cc(Cl)ncn4)cc3)cc2C(F)(F)F)c1C [Example 23, N-[4-(6-Chloro-pyrimidin-4-yloxy)-phenyl]-N′-[4-(4,5-dimethylimidazol-1-ylmethyl)-3-trifluoromethyl-phenyl]-urea] | 195 to 196 °C | 1300 nM |
| Cc1nccn1Cc1ccc(NC(=O)Nc2ccc(Oc3cc(Cl)ncn3)cc2)cc1C(F)(F)F [Example 24, N-[4-(6-Chloro-pyrimidin-4-yloxy)-phenyl]-N′-[4-(2-methylimidazol-1-ylmethyl)-3-trifluoromethyl-phenyl]-urea] | 228 °C | 170 nM |
| CCN1CCN(Cc2ccc(NC(=O)Nc3ccc(Oc4cc(Cl)ncn4)cc3)cc2)CC1 [Example 27, N-[4-(6-Chloro-pyrimidin-4-yloxy)-phenyl]-N′-[4-(4-ethylpiperazin-1-ylmethyl)-phenyl]-urea] | 203 to 204 °C | – |
| CNc1nccc(Oc2ccc(NC(=O)Nc3ccc(CN(C)C)c(C(F)(F)F)c3)cc2)n1 [Example 48, N-[4-(2-Methylamino-pyrimidin-4-yloxy)-phenyl]-N′-[4-(4-dimethylamino-methyl) 3-trifluoromethyl-phenyl]-urea] | – | 580 nM |
| Cc1nccn1Cc1ccc(NC(=O)Nc2ccc(Oc3ccnc(N)n3)cc2)cc1C(F)(F)F [Example 51b.1] | – | 130 nM |
| CNc1nccc(Oc2ccc(NC(=O)Nc3ccc(Cn4ccnc4C)c(C(F)(F)F)c3)cc2)n1 [Example 51b.2] | – | 170 nM |
| CCN1CCN(Cc2ccc(NC(=O)Nc3ccc(Oc4ccnc(N)n4)cc3)cc2C)CC1 [Example 51d.1] | – | 91 nM |
| CCN1CCN(Cc2ccc(NC(=O)Nc3ccc(Oc4ccnc(NC)n4)cc3)cc2C)CC1 [Example 51d.2] | – | 135 nM |
| CCN1CCN(Cc2ccc(NC(=O)Nc3ccc(Oc4ccnc(N)n4)cc3)cc2)CC1 [Example 51e.1] | – | 250 nM |
| CCN1CCN(Cc2ccc(NC(=O)Nc3ccc(Oc4ccnc(NC)n4)cc3)cc2)CC1 [Example 51e.2] | – | 910 nM |
| Nc1cc(Oc2ccc(NC(=O)Nc3ccc(-c4ccccn4)c(C(F)(F)F)c3)cc2)ncn1 [Example 57, 1-[4-(6-Amino-pyrimidin-4-yloxy)-phenyl]-3-(4-pyridin-2-yl-3-trifluoromethyl-phenyl)-urea] | – | 118 nM |
| Nc1cc(Oc2ccc(NC(=O)Nc3ccc(-c4cccnc4)c(C(F)(F)F)c3)cc2)ncn1 [Example 58, 1-[4-(6-Amino-pyrimidin-4-yloxy)-phenyl]-3-(4-pyridin-3-yl-3-trifluoromethyl-phenyl)-urea] | 132 to 135 °C | 120 nM |
| Nc1cc(Oc2ccc(NC(=O)Nc3ccc(-c4ccncc4)c(C(F)(F)F)c3)cc2)ncn1 [Example 59, 1-[4-(6-Amino-pyrimidin-4-yloxy)-phenyl]-3-(4-pyridine-4-yl-3-trifluoromethyl-phenyl)-urea] | 131 to 135 °C | 76 nM |
| Cc1cccc(-c2ccc(NC(=O)Nc3ccc(Oc4cc(N)ncn4)cc3)cc2C(F)(F)F)n1 [Example 60, 1-[4-(6-Amino-pyrimidin-4-yloxy)-phenyl]-3-[4-(6-methyl-pyridin-2-yl)-3-trifluoromethyl-phenyl]-urea] | 130 to 133 °C | 160 nM |
| CNc1cc(Oc2ccc(NC(=O)Nc3ccc(-c4ccccn4)c(C(F)(F)F)c3)cc2)ncn1 [Example 61, 1-[4-(6-Methylamino-pyrimidin-4-yloxy)-phenyl]-3-(4-pyridin-2-yl-3-trifluoromethyl-phenyl)-urea] | 114 to 118 °C | 490 nM |
| CCN1CCN(Cc2ccc(NC(=O)Nc3ccc(Oc4cc(NC(=O)OC)ncn4)cc3)cc2C(F)(F)F)CC1 [Example 70] | 191 to 193 °C | – |

Second part, the compound after the results:

| melting point | IC50 [1] | SMILES |
| --- | --- | --- |
| 153 to 155 °C | 38 nM | Nc1cc(Oc2ccc(NC(=O)Nc3ccc(CN4CCNCC4)c(C(F)(F)F)c3)cc2)ncn1 [Example 19-1, N-[4-(6-Amino-pyrimidin-4-yloxy)-phenyl]-N′-[4-(4-H-piperazin-1-ylmethyl)-5-trifluoromethyl-phenyl]-urea] |
| 197 to 198 °C | 80 nM | CNc1cc(Oc2ccc(NC(=O)Nc3ccc(CN4CCNCC4)c(C(F)(F)F)c3)cc2)ncn1 [Example 19-2, N-[4-(6-Methylamino-pyrimidin-4-yloxy)-phenyl]-N′-[4-(4-H-piperazin-1-ylmethyl)-5-trifluoromethyl-phenyl]-urea] |
| 98 to 105 °C | – | CN(C)Cc1ccc(NC(=O)Nc2ccc(Oc3cc(Cl)ncn3)cc2)cc1C(F)(F)F [Example 20-2, N-[4-(6-Chloro-pyrimidin-4-yloxy)-phenyl]-N′-[4-(N,N-dimethylamino-methyl)-3-trifluoromethyl-phenyl]-urea] |
| – | 80 nM | Nc1nccc(Oc2ccc(NC(=O)Nc3cccc(C(F)(F)F)c3)cc2)n1 [Example 52b] |
| – | 260 nM | Nc1nccc(Oc2ccc(NC(=O)Nc3cc(-c4ccccn4)cc(C(F)(F)F)c3)cc2)n1 [Example 52d] |
| – | 370 nM | COc1cccc(Nc2cc(Oc3ccc(NC(=O)Nc4ccc(N5CCOCC5)c(C(F)(F)F)c4)cc3)ncn2)c1 [Example 55c] |
| – | 970 nM | O=C(Nc1ccc(Oc2cc(NC3CCC(O)CC3)ncn2)cc1)Nc1ccc(N2CCOCC2)c(C(F)(F)F)c1 (stereo not drawn) [Example 55d] |
